Measurements: US20180221329A1, “CIS- AND TRANS-SUFFRUTICOSOL D AS THERAPEUTIC AGENTS” (MIDDLE TENNESSEE STATE UNIVERSITY, priority 2015, published 2018)

Columns and labels:
[1] = tested on: BT20 (estrogen receptor-negative human breast adenocarcinoma) cells; assay: Cell proliferation assay (AlamarBlue), BT20; assay type: cell-based; details: for IC50: BT20, 48 h, AlamarBlue; for Selectivity: BT20 versus normal HMEC cells
Procedure: Cell culture. Four human cancer cell lines including A549 (lung carcinoma), BT20 (estrogen receptor-negative human breast adenocarcinoma), MCF-7 (estrogen receptor-positive human breast adenocarcinoma) and U2OS (human osteosarcoma) were purchased from American Type Culture Collection (ATCC). An A549 cell line that stably expresses Green Fluorescent Protein (GFP) was purchased from Cell BioLabs Inc. (San Diego, Calif., USA). A549, A549-GFP and BT20 cells were cultured in RPMI 1640 media (Sigma-Aldrich, St. Louis, Mo., USA), MCF7 cells were cultured in DMEM medium (ATCC, Manassas, Va., USA), and U20S cells were cultured in McCoy's 5A medium (ATCC, Manassas, Va., USA). As a control, HMEC cells (primary human mammary breast epithelial cells) were purchased from ATCC and cultured in McCoy's 5A medium. All medium contained 10% FBS (Sigma-Aldrich, St. Louis, Mo., USA) and 1% streptomycin and penicillin (Sigma-Aldrich, St. Louis, Mo., USA). These cells were incubated in a humid environment with 5% CO2 at 37° C.
Cell proliferation assay. The resazurin reduction reagent AlamarBlue (Invitrogen, Frederick, Md., USA) was used to evaluate the cytotoxicity of the compounds. Cells were plated at a density of 5×10^3 cells per well in 96-well microplates with 100 μl culture medium, and were allowed to attach for 16 h prior to treatment. Next, all the medium was replaced with medium containing the cis- or trans-suffruticosol D compounds at seven different concentrations: 320, 100, 32, 10, 3.2, 1.0, and 0.32 μM. The cells were placed in an incubator for 48 h at 37° C. Cells that were treated with medium-containing vehicle (1% DMSO) only serve as negative control. Subsequently, AlamarBlue solution was added to the medium and the cells were incubated in the CO2 incubator for 1 h. The fluorescent intensity change of the dye was measured at Ex 555 nm and Em 590 nm using a plate reader (Molecular Devices, Sunnyvale, Calif., USA). The cytotoxicity was examined by determining by IC50, the dose that inhibited 50% of cell growth, using GraphPad Prism software (GraphPad Software, La Jolla, Calif., USA).
Table 1. IC50 values of cis- and trans-suffruticosol D in selected cancer and normal cell lines. Cells were treated with various concentrations of cis- or trans-suffruticosol D for 48 h, and the viability of cells was evaluated with AlamarBlue dye.

A549 cells = assay: Apoptosis assay (Annexin V/7-AAD flow cytometry); assay type: cell-based, human; details: 24 h
Procedure: FIGS. 2A-E depict induction of apoptosis by cis- and trans-suffruticosol D in A549 cells. After 24 h treatment by cis- or trans-suffruticosol D, A549 cells were stained with Annexin V/7-amino-actinomycin D (7-AAD) and the percentage of apoptotic cells, as measured by fluorescence intensity, was assessed by flow cytometry. Cells treated with the vehicle, 1% dimethylsulfoxide, DMSO, only served as a negative control.
Apoptosis assay. The FlowCellect Annexin Red Kit (EMD Millipore, Billerica, Mass., USA) was used to determine the apoptosis rate in A549 cells according to the manufacturer's instructions. Briefly, A549 cells were plated in 96-well plates. After a 24 h treatment with cis- or trans-suffruticosol D at concentrations of 100, 32, and 10 μM, the floating and attached cells were collected for analysis. The cells were centrifuged at 700×g for 7 min and were resuspended in 100 μL Assay Buffer (EMD Millipore, Billerica, Mass., USA). Afterwards, the cells were stained with annexin-V for 15 min and 7-amino-actinomycin D (7-AAD) for 5 min, and examined with a Guava EasyCyte Flow Cytometer (EMD Millipore, Billerica, Mass., USA). Data was analyzed using Guava InCyte software.

[2] = tested on: apoptotic proteins in A549 cells; assay: Apoptosis antibody array; assay type: cell-based, human; details: 50 μM, 6 h
phosphorylated NF-κB p65 = assay: Western blotting analysis of TNF-α-induced NF-κB p65 phosphorylation; assay type: cell-based, human; details: 50 μM, 3 h, then 10 ng/mL TNF-α 30 min, A549
Procedure: Western blotting analysis. A549 cells were treated with 50 μM of cis- or trans-suffruticosol D for 3 h then incubated with 10 ng/mL of TNF-α for 30 min. Cells treated with the NF-κB inhibitor Bay11-7082 (10 μM) (Sigma-Aldrich) were used as a positive control, and cells treated with vehicle only were used as a negative control. After treatment, the cells were lysed using M-PER mammalian protein extraction reagent (Pierce PERBIO, Rockford, Ill.) containing proteinase and phosphatase inhibitors (Sigma-Aldrich, USA) and centrifuged at 13,000 rpm for 5 min at 4° C. A Pierce BCA protein assay kit (Thermo Fisher Scientific, Waltham, Mass., USA) was used to determined protein concentrations. Proteins were separated on a 4-20% Tris Glycine gel (Thermo Fisher Scientific, Waltham, Mass., USA), and electrophoretically transferred to a PVDF membrane. The following primary antibodies were used: phosphorylated-NF-κB p65, NF-κB p65 (Cell Signaling Technology, Danver, Mass.) and actin (Santa Cruz Biotechnology, Dallas, Tex.). The membrane was incubated with the primary antibodies at a 1:1000 concentration at 4° C. overnight. After washing with 1×PBS 5 times, the membrane was incubated for 2 h at room temperature with HRP linked anti-rabbit IgG secondary antibodies. […]

SMILES | IC50 ([1]; listed as cis-SD) [µM] | Selectivity ([1]; listed as cis-SD) | A549 cells induced into apoptosis (A549 cells; 10 μM) [%] | A549 cells induced into apoptosis (A549 cells; 32 μM) [%] | A549 cells induced into apoptosis (A549 cells; 100 μM) [%] | BH3 interacting-domain death agonist (BID) expression [2] | cyclin-dependent kinase inhibitor 1B (p27Kip1) expression [2] | death receptor 6 (DR6) expression [2] | expression of phosphorylated NF-κB p65 upon TNF-α stimulation (phosphorylated NF-κB p65) | Selectivity ([1]; listed as trans-SD) | IC50 ([1]; Homo sapiens, BT-20, 48 h) [µM]
Oc1ccc(C=Cc2c3c(cc4c2[C@@H](c2cc(O)cc(O)c2)[C@H](c2ccc(O)cc2)O4)O[C@H](c2ccc(O)cc2)[C@@H]3c2cc(O)cc(O)c2)cc1 [cis-suffruticosol D] | 13.4 ± 2.5 | 20 | 22.2 | 27.1 | 45.3 | up-regulated | up-regulated | up-regulated | blocked as effectively as the blockage caused by the Bay11-7082 inhibitor control |  | 
Oc1ccc(/C=C/c2c3c(cc4c2[C@@H](c2cc(O)cc(O)c2)[C@H](c2ccc(O)cc2)O4)O[C@H](c2ccc(O)cc2)[C@@H]3c2cc(O)cc(O)c2)cc1 [trans-suffruticosol D] |  |  | 30.1 | 39.8 | 41.9 | up-regulated | up-regulated | up-regulated | almost completely blocked | 14.8 | 9.9 ± 3.8
